Experimental data as given in patent publication US20060199772A1, “Use of a proteasome inhibitor in the treatment of endothelial dysfunction and/or in a low-dose proteasome inhibitor therapy” (Charite'-Universitaetsmedizin Berlin, priority 2002, published 2006).
“Also recorded” adds a separate entry of the source. Where a SMILES comes first, the peptide text is derived from it. The star is where a group is joined. Cbz = O=C(OCc1ccccc1)*

Experiments:
eNOS mRNA [1] = assay: eNOS mRNA levels by real-time RT-PCR in CPAE cells; format: cell-based, bovine
Description: (§1) The bovine pulmonary artery endothelial cell line (CPAE cells) was purchased from the American Type Culture Collection (ATCC, # CCL-209) and was cultured in MEM supplemented with 5% FCS, 1.5 g/L sodium bicarbonate, 0.11 g/L sodium pyruvate, 100 U/mL penicillin, and 100 μg/ml streptomycin. Human umbilical vein endothelial cells (HUVECs) were isolated and cultured as described previously (Stangl et al. Homocysteine inhibits TNF-α-induced endothelial adhesion molecule expression and monocyte adhesion via nuclear factor-κB dependent pathwas. Biochem Biophys Commun. 2001; 280:1093-1100). Purity of HU-VECs was assessed by von Willebrand factor staining. For experiments, cells were seeded onto […] dishes and were treated with either proteasome inhibitors MG132, MG262, with the non-proteasomal cathepsin inhibitor ALLM, or with solvent (DMSO) for the times and concentrations indicated. In some experiments, the transcription inhibitor α-amanitin (2.5 μg/mL) was pre-incubated one hour before addition of proteasome inhibitor. Cell viability was assessed by trypan blue exclusion. For HUVECs, the inventors used only second- to third-passage cells for all experiments. For phalloidin-DAPI double staining, cells were fixed with 4% paraformaldehyde, permeabilized with 1% Triton, and blocked with 1% FCS. The inventors took cell photos with a Zeiss camera and analysed them with Axiovert 3.0 software.
After treatment, cells were lysed in Trizol reagent (Gibco Life Technologies, Karlsruhe, Germany) and 800 ng of total RNA were reversed transcribed with random hexamers. Primer sequences were synthesized by TIB Molbiol (Berlin, Germany), and TaqMan probes by Eurogentec (Seraing, Belgium). Table 1 summarizes the sequences of primers and probes used in this study. mRNA expression was standardized to the HPRT (hypoxanthine phosphoribosyl transferase) gene as a housekeeping gene, the transcription level of which were not influenced under our experimental conditions. PCR amplification was carried out in 25 μL TaqMan Universal PCR Master Mix (Perkin Elmer Applied Biosystems, Foster City, Calif.) containing either 0.3 or 0.9/μmol/L primer, 0.2/μmol/L TaqMan probe, and 1 μl of the reverse transcription reaction in a 5700 Sequence Detection System (Perkin Elmer Applied Biosystems). Thermal cycling conditions comprised an initial denaturation step at 95° C. for 10 minutes, followed by 95° C. for 15 seconds and 60° C. for 1 minute for 40 cycles. Size and purity of the amplification products were verified on a 20% PAA gel. The CT (threshold cycle) is defined as the number of cycles required for the fluorescence signal to exceed the detection threshold. The expression of the target gene relative to the housekeeping gene was calculated as the difference between the threshold values for the two genes.
The SYBR Green method was applied for quantitative amplification of bovine eNOS mRNA. In our analysis with the transcription inhibitor α-amanitin—which blocks RNA polymerase II, whereas RNA polymerase I is insensitive to this toxin (Lindell T J et al. Specific inhibition of nuclear RNA polymerase II by alpha-amanitin. Science. 1970; 170: 447-449)—the inventors standardized eNOS mRNA expression to RP29 (ribosomal protein 29) gene as housekeeping gene. Thermal cycling conditions were identical to the TaqMan PCR.

eNOS [2] = assay: eNOS protein expression by Western blot in CPAE cells; format: cell-based, bovine; conditions: for upregulation of eNOS protein (specificity comparison with MG132): equipotent doses
Description: as §1
(§2) After treatment, cells were washed twice with PBS and lysed in extraction buffer containing in mmol/L: Tris/HCl 50 (pH 7.4), KCl 154, glucose 5, EDTA 0.5, PMSF 1, DTT 2, and 1% Triton X-100. Total protein (50 μg per lane) was subjected to SDS-PAGE and membranes were probed with anti-eNOS monoclonal antibody (1:2500) or with anti-ubiquitin antibody (1:1000). Membranes were incubated with secondary anti-mouse antibody (1:2500) conjugated to alkaline phosphatase for eNOS or with anti-rabbit antibody conjugated to horseradish peroxidase (1:10000) for ubiquitin. Bands were visualized by using BCIP and Nitro Blue Tetrazolium (Sigma) for eNOS, and by employing the ECL detection system (Amersham) for ubiquitin.

eNOS [3] = assay: eNOS protein expression by Western blot in HUVECs; format: cell-based, human
Description: as §1, with “For phalloidin-DAPI double staining, cells were fixed with 4% paraformaldehyde, permeabilized with 1% Triton, and blocked with 1% FCS.” left out, “software. […]” for “software.”

proteasome = assay: Accumulation of poly-ubiquitinylated proteins (anti-ubiquitin Western blot) in CPAE cells; format: cell-based, bovine
Description: as §1, §2

eNOS mRNA [4] = assay: eNOS mRNA levels by real-time RT-PCR in HUVECs, with or without TNF-α; format: cell-based, human; conditions: 48 hours
Description: Purity of HU-VECs was assessed by von Willebrand factor staining. For experiments, cells were seeded onto 6-mm diameter dishes and were treated with either proteasome inhibitors MG132, MG262, with the non-proteasomal cathepsin inhibitor ALLM, or with solvent (DMSO) for the times and concentrations indicated. In some experiments, the transcription inhibitor α-amanitin (2.5 μg/mL) was pre-incubated one hour before addition of proteasome inhibitor. Cell viability was assessed by trypan blue exclusion. For HUVECs, the inventors used only second- to third-passage cells for all experiments.
For eNOS expression in HUVECs, cells were treated with DMSO (control), TNF-α (1, 2.5 and 5 ng/ml) and TNF-α (same concentrations) in the presence of 70 nM MG132, for 48 hours, whereupon eNOS mRNA levels were measured (see Method 3).
After treatment, cells were lysed in Trizol reagent (Gibco Life Technologies, Karlsruhe, Germany) and 800 ng of total RNA were reversed transcribed with random hexamers. Primer sequences were synthesized by TIB Molbiol (Berlin, Germany), and TaqMan probes by Eurogentec (Seraing, Belgium). […] The CT (threshold cycle) is defined as the number of cycles required for the fluorescence signal to exceed the detection threshold. The expression of the target gene relative to the housekeeping gene was calculated as the difference between the threshold values for the two genes.

eNOS [5] = assay: eNOS activity, L-[3H]arginine to L-[3H]citrulline conversion in extracts of treated CPAE cells; format: cell-based, bovine
Description: eNOS activity was assessed by the formation of L-[^3H]citrulline from L-[^3H]arginine after separation of the amino acids by cation exchange chromatography. Endothelial cells were washed with PBS and lysed in the same extraction buffer as for Western blot analysis. The inventors added 50 μg of total protein to the reaction mixture containing 50 mmol/L Hepes pH 7.4, 0.1% Triton X-100, 1 mmol/L EDTA, 1.25 mmol/L CaCl2, 1 mmol/L DTT, 1 μmol/L FAD, 15 μmol/L BH4, 1 mmol/L NADPH, and 1 μCi L-[^3H]arginine. Incubation was performed for 30 minutes at 37° C. Reactions were terminated by adding 0.5 ml of ice-cold Dowex (Na^+ form). L-[^3H]citrulline was separated from L-[^3H]arginine by Dowex chromatography, and L-[^3H]citrulline formation was quantified by liquid scintillation counting. The inventors subtracted the values obtained from samples incubated without cell extracts. […] In some samples, CaCl2 was omitted from the reaction buffer to exclude any contribution of inducible NO synthase (iNOS).

rat aortic rings = assay: Vasorelaxation studies in pretreated rat aortic rings (organ chamber); format: cell-based; conditions: 48 hours
Description: Thoracic aortas from male Wistar rats were rapidly excised, cleaned of connective tissue, and cut into rings 2 to 3 mm in length for organ-chamber experiments. Rings were incubated with MG132 100 nmol/L, 250 nmol/L, or solvent, or TNF-α (250 pg/ml) in the presence and absence of 250 nM MG132, for 48 hours in MEM at 37° C. containing 50 U/mL penicillin, 50 μg/mL streptomycin, 0.1% BSA, and 1 μg/mL polymyxin B. The rings were then mounted on platinum hooks in 10 ml jacketed organ baths containing modified Krebs-Henseleit solution (composition in mmol/L: NaCl 144, KCl 5.9, CaCli 1.6, MgSO^4− 1.2, KH2PO4^− 1.2, NaHCO3^− 25, and D-glucose 11.1) and diclofenac 1 μmol/L. Tension was gradually adjusted to 2 g over 1 hour. The solution in the bath was kept at 37° C. with a gas mixture of […]. Following equilibration and submaximal precontraction with phenylephrine (0.05 μmol/L), relaxation to increasing concentrations (1 nmol/L to 1 μmol/L) of the endothelium-dependent vasodilator acetylcholine was performed to obtain cumulative concentration-response curves. Selected studies were conducted in rings treated with L-NAME (1 mmol/L) before phenylephrine exposure. Maintenance of smooth-muscle integrity following incubation with the proteasome inhibitor or solvent was confirmed by evaluation of endothelium-independent vasodilation to papaverine (1 nmol/L to 1 μmol/L).

CPAE cells = assay: Cell viability by trypan blue exclusion; format: cell-based, bovine
Description: as §1, with “For phalloidin-DAPI double staining, cells were fixed with 4% paraformaldehyde, permeabilized with 1% Triton, and blocked with 1% FCS.” left out

[6] = test system: cultured neonatal rat cardiomyocytes; conditions: cited from earlier work
cardiomyocytes = conditions: cited from earlier work
[7] = rat aortic rings pretreated 100 and 250 nmol/L

## CC[C@H](C)[C@@H]1NC(=O)CNC(=O)[C@@H]2Cc3c([nH]c4cc(O)ccc34)[S+]([O-])C[C@@H](NC(=O)CNC1=O)C(=O)N[C@@H](CC(N)=O)C(=O)N1C[C@H](O)C[C@H]1C(=O)N[C@@H]([C@@H](C)[C@@H](O)CO)C(=O)N2 (stereo in doubt) [α-amanitin]
eNOS mRNA [1]; 2.5 μg/mL, pre-incubated 1 hour
  effect on overall eNOS mRNA levels: reduced overall eNOS mRNA levels

## CC(C)C[C@@H](C=O)NC(=O)[C@H](CC(C)C)NC(=O)[C@H](CC(C)C)NC(=O)OCc1ccccc1 [MG132, N-carbobenzoxy-L-leucinyl-L-leucinyl-L-leucinal] (Cbz-Leu-Leu-Leu-aldehyde)
eNOS [2]; 20 nmol/L
  effect on eNOS expression at 20 nmol/L: did not affect eNOS expression
eNOS [2]; 50 nmol/L
  time from which eNOS upregulation is significant: 24 h
eNOS [2]; 100 nmol/L single dose
  duration of enhanced eNOS protein after a single dose: up to 10 days
eNOS [2]; 500 nmol/L and above
  effect on eNOS protein levels at higher concentrations: decreased eNOS protein levels
eNOS [2]; 50 to 250 nmol/L
  effect on eNOS protein levels at low concentrations: gradually increased eNOS protein levels
eNOS [2]; incubation with single dose
  time at which the rise of eNOS protein expression began: 16 h
eNOS [2]; single dose 100 nmol/L, 48 hours
  eNOS protein expression versus control: 2.4 fold
eNOS [3]
  eNOS protein expression in HUVECs: dose-dependent increase in eNOS
proteasome
  concentration from which poly-ubiquitinylated proteins accumulate: ≥ 50 nmol/L
proteasome; 20 nmol/L
  proteasome inhibition at 20 nmol/L: had no proteasomal inhibitory influence
proteasome; 100 nmol/L single dose
  time for which poly-ubiquitinylated proteins are detectable after a single dose: three
proteasome; 50 to 250 nmol/L
  accumulation of poly-ubiquitinylated proteins: led to accumulation of poly-ubiquitinylated proteins
eNOS mRNA [1]
  time at which upregulation of eNOS mRNA begins: 16 h
eNOS mRNA [1]; 100 nmol/L single dose
  time at which eNOS mRNA is still elevated after a single dose: 7 days
eNOS mRNA [1]; 100 nmol/L, 24 hours
  maximum eNOS mRNA level, times the control level: 6.5 times the control level
eNOS mRNA [1]; α-amanitin pretreatment 1 hour
  MG132-induced increase in eNOS mRNA after α-amanitin pretreatment: without eliminating the increase in mRNA levels induced by MG132
eNOS mRNA [4]; HUVECs, 70 nM with TNF-α 1, 2.5, 5 ng/ml
  eNOS mRNA expression in presence of TNF-α versus TNF-α alone: substantially increased expression of eNOS mRNA
eNOS [5]
  time at which the increase in eNOS activity begins: 24 h
eNOS [5]; 100 nmol/L single dose
  duration of enhanced eNOS enzyme activity after a single dose: up to 10 days
Rat aortic rings; rat aortic rings pretreated 250 nmol/L
  maximum relaxation to acetylcholine, percentage of phenylephrine precontraction: 89.4±5.7%
Rat aortic rings; [7]
  endothelial-independent vasorelaxation in response to papaverine: remained unaffected
  endothelium-dependent relaxation to acetylcholine: significantly enhanced
Rat aortic rings; rat aortic rings, 250 nM with TNF-α 250 pg/ml
  vasoreactivity to acetylcholine of TNF-α-damaged aortic rings: vasoreactivity can be significantly improved
CPAE cells
  toxic doses by trypan blue exclusion: higher than 250 nmol/L
[6]; 1 μM, control hyperthermia 5+/−2 min
  spontaneous beating time of cardiomyocytes at 46° C.: 28 ± 5 min
[6]
  induction of heat shock proteins at mRNA and protein levels: time- and concentration-dependently induced Hsp72 and Hsp32
cardiomyocytes
  protective effects at concentrations of less than 1 μM: did not exhibit protective effects

## TNF-α
eNOS mRNA [4]; HUVECs, 1, 2.5 and 5 ng/ml
  eNOS mRNA expression versus DMSO control: reduction and almost abolition of mRNA expression
Rat aortic rings; rat aortic rings, 250 pg/ml
  acetylcholine-dependent vasodilatation versus DMSO control: significantly reduced

## CSCC[C@@H](C=O)NC(=O)[C@H](CC(C)C)NC(=O)[C@H](CC(C)C)NC(C)=O [ALLM, N-acetyl-leucyl-leucyl-methioninal] (Ac-Leu-Leu-Met-aldehyde)
eNOS [2]
  upregulation of eNOS protein (specificity comparison with MG132): had no effect; also recorded: failed to upregulate eNOS
proteasome; corresponding doses
  proteasome inhibition (poly-ubiquitinylated proteins), comparison with MG132: failed to inhibit the proteasome

## CC(C)C[C@H](NC(=O)[C@H](CC(C)C)NC(=O)[C@H](CC(C)C)NC(=O)OCc1ccccc1)B(O)O [MG262]
eNOS [2]
  upregulation of eNOS protein (specificity comparison with MG132): also upregulates eNOS; also recorded: Comparable results; also recorded: induced upregulation of eNOS protein to an extent similar to that caused by MG132
